# From US10392423B2, “Peptide-based inhibitors of MLL/SET1 family core complexes” (The Research Foundation for the State University of New York, priority 2017, dated 2019)
# Several values for one entry are separate records, joined by “and”; a condition that tells them apart may be missing. Equal values may be shown once. Read-outs that look alike come from different tables or passages of the source.
# Key:
# [1] = tested on: isolated SET1 family SET domains; assay: Isolated SET domain methyltransferase activity with Win6mer (radiometric, fluorography/LSC); format: biochemical, human; conditions: 100 μM Win6mer; isolated SET domains without WRAD
# Procedure: Methyltransferase Assays. MLL core complex Win motif mutants. […] Reactions were quenched with SDS-loading buffer and separated by SDS-PAGE using a 4-12% Bis-Tris gel (Life Technologies) run at 200V for 30 minutes. The gels were enhanced at room temperature for 30 minutes (Enlightning, Perkin Elmer Inc.) then dried for 2.5 hours at 72° C. under constant vacuum. The dried gels were exposed to film (Kodak Biomax MS Film) at −80° C. for 4-24 hours prior to developing. Liquid scintillation counting (LSC) was performed by excising gel bands corresponding to histone H3 peptides, which were dissolved in 750 μL of Solvable (Perkin Elmer Inc.), incubated at room temperature for 30 minutes followed by incubation at 50° C. for 3 hours. The solubilized volume of each sample was transferred to liquid scintillation vials containing 10 mL of Ultima Gold XL liquid scintillation cocktail (Perkin Elmer Inc.). Samples were dark adapted for 1 hour then counted for 5 minutes each with a two-sigma error cut-off using an all-purpose scintillation counter (Beckman Coulter).
# MLL SET domains treated with Win6mer. Isolated SET1 family SET domains (5 μM) were incubated with 1 μCi of ^3H-AdoMet (Perkin Elmer Inc.) and 100 μM of H3K4me0, H3K4me1, or H3K4me2 peptides, with and without 100 μM Win6mer, in Assay Buffer at 15° C. for 8 hours. Reactions were quenched with SDS-loading buffer. […]
# MLL2 core complex = molecular target: T1, MLL2 core complex (Homo sapiens, UniProt P61964); assay: Core complex methyltransferase inhibition, scintillation proximity assay; format: biochemical; conditions: H3K4me0 substrate
# T1 construct: Full-length WRAD constructs in pHis parallel expression vectors; His; made in house; host or cells: Escherichia coli Rosetta II (DE3) pLysS
# Procedure: (§1) MLL Core Complex inhibition by Win6mer. Assay conditions: MLL core complexes were reconstituted by mixing purified GST-SET domains (MLL1, MLL4, MLL2, MLL3, SETd1A, and SETd1B) with WDR5, RbBP5, ASH2L, and DPY-30 in stoichiometric amounts (GST-SET:W:R:A:D 1:1:1:1:2). The activity of each core complex was assessed under the following conditions: 2 μM SET1 core complex, 80 μM biotinylated H3 substrate peptide, 0.68 μM ^3H-AdoMet (0.5 μCi) at 15° C. in Assay Buffer (50 mM Tris pH 8.5, 200 mM NaCl, 5 mM MgCl2, 5% glycerol), in a total volume of 10 μL. Core complex- or H3 peptide-only reactions incubated with ^3H-AdoMet served as background controls. Reactions were quenched with 167 mM EDTA (ethylenediaminetetraacetic acid). Each sample was diluted in 50 μL Buffer 2 containing 0.2 mg/mL BSA and then transferred to 96-well streptavidin-coated FlashPlate® Microplates (Perkin Elmer). Samples were incubated overnight at 4° C. to allow binding of the biotinylated H3 peptide to the streptavidin-coated surface prior to scintillation counting in Hidex Sense microplate reader (LabLogic). Determination of linear ranges: The activity of MLL core complexes towards H3K4me0, H3K4me1, or H3K4me2 substrate peptides was assayed as described above. Reactions were quenched at varying time points with 167 mM EDTA and prepared for scintillation counting on Streptavidin FlashPlates®. A plot of counts per minute (CPM) vs. time was constructed from which the linear range was determined. Single time points within the linear range were selected for each SET1 core complex for performing inhibition studies: H3K4me0: MLL1, MLL2*, SETd1A, and SETd1B*—5 min, MLL4—3 min, MLL3—15 min. H3K4me1: MLL1—5 min, MLL4—3 min, SETd1A—15 min, SETd1B—45 min. H3K4me2: SETd1A—2 hr, SETd1B—1 hr. (*1 μM of MLL2 and SETd1B core complex were used for H3K4me0 reactions). Dose response curves: Inhibition studies were performed in order to determine the efficiency of Win6mer as an MLL core complex inhibitor. The activity of each MLL core complex towards H3 substrate peptides was assessed (as described above) with increasing doses of Win6mer (0, 0.005, 0.05, 0.10, 0.5, 1.0, 2.5, 5.0, 10.0, and 50 μM). Reactions were quenched with 167 mM EDTA at the determined time points and prepared for scintillation counting on streptavidin-coated FlashPlastes® as described above.
# (§2) The activity of SET1 core complexes at each Win6mer concentration point was normalized to the activity of the uninhibited core complex to obtain the relative methyltransferase activity. Inhibition data were plotted as relative methyltransferase activity vs. log [Win6mer] (nM). The Win6mer IC50 values for MLL1 and SETd1A core complexes were determined by fitting the data to a dose response with variable slope equation in Sigma Plot.
# MLL4 core complex = molecular target: T2, MLL4 core complex (Homo sapiens, UniProt P61964); assay: as above; format: biochemical; conditions: for IC50: 2 μM core complex, Win6mer up to 50 μM, read-out: Inhibition Efficiency, IC50
# T2 construct: Full-length WRAD constructs in pHis parallel expression vectors; His; made in house; host or cells: Escherichia coli Rosetta II (DE3) pLysS
# Procedure: as §1, §2
# SETd1B core complex = molecular target: T3, SETd1B core complex (Homo sapiens, UniProt P61964); assay: as above; format: biochemical; conditions: for IC50: Win6mer up to 50 μM, read-out: Inhibition Efficiency, IC50
# T3 construct: Full-length WRAD constructs in pHis parallel expression vectors; His; made in house; host or cells: Escherichia coli Rosetta II (DE3) pLysS
# Procedure: as §1, §2
# MLL1 core complex = molecular target: T4, MLL1 core complex (Homo sapiens, UniProt P61964); assay: as above; format: biochemical
# T4 construct: Full-length WRAD constructs in pHis parallel expression vectors; His; made in house; host or cells: Escherichia coli Rosetta II (DE3) pLysS
# Procedure: as §1, §2
# MLL3 core complex = molecular target: T5, MLL3 core complex (Homo sapiens, UniProt P61964); assay: as above; format: biochemical; conditions: H3K4me0 substrate
# T5 construct: Full-length WRAD constructs in pHis parallel expression vectors; His; made in house; host or cells: Escherichia coli Rosetta II (DE3) pLysS
# Procedure: as §1, §2
# [2] = molecular target: T6, SET1 family core complex assembly (WDR5, RbBP5, ASH2L) (Homo sapiens, UniProt P61964); assay: GST pull-down of endogenous WRAD components from MCF-7 cell extracts with or without Win6mer; format: binding; conditions: 10 μM Win6mer
# T6 construct: host or cells: MCF-7 cell extract
# Procedure: For pull-down assays using cell extracts, a 3 μM concentration of each GST-tagged SET domain was incubated with 100 μg of MCF-7 cell extract for 16 hours at 4° C. Following the initial incubation, 20 μL of a 50:50 slurry of glutathione agarose beads was added to each sample and incubated for an additional 2 hours at 4° C. Samples were washed 3× in radioimmunoprecipitation (RIPA) buffer. Samples were eluted from beads by boiling the samples at 95° C. in SDS-loading buffer for 10 minutes. Samples of the supernatant were separated on a 4-12% Bis-Tris gel and transferred to a PVDF membrane at 30V for 1 hour. PVDF membranes were blocked for 1 hour with a 5% non-fat milk solution then incubated with primary antibody (1:2,000) for 1 hour at room temperature. Blots were washed 4 times then incubated with an HRP-conjugated anti-rabbit secondary antibody (1:5,000) for 1 hour at room temperature. Blots were washed an additional 4 times, then visualized by chemiluminesence (Clarity Western, BioRad) on a BioRad ChemiDoc MP Imager using the chemiluminesence setting.
# WDR5 [3] = molecular target: T7, WDR5 (Homo sapiens, UniProt P61964); assay: Isothermal titration calorimetry (ITC) binding to WDR5
# T7 construct: the experimental cell containing full-length WDR5 (20 μM); His; made in house; host or cells: Escherichia coli Rosetta II (DE3) pLysS
# Procedure: Isothermal titration calorimetry (ITC). Purified full-length WDR5 and Win6mer peptide were extensively dialyzed in separate Micro Float-A-Lyzer® Dialysis Devices, MWCO 500-1000 Da (Spectrum Labs) against sample buffer consisting of 20 mM Tris pH 7.5, 300 mM NaCl, 1 mM TCEP, 1 μM ZnCl2 buffer. ITC experiments were carried out at 20° C. using a VP-ITC micro-calorimeter (MicroCal). After an initial delay of 120 sec, Win6mer (200 μM) was titrated into the experimental cell containing full-length WDR5 (20 μM) over the course of 45 injections, 5 μL each. Reference power was set to 10 μCal/sec and stirring speed was set to 295 rpm. Data were integrated using NITPIC. SEDPHAT was used to fit the integrated data to a single-site heterogeneous association model, using simulated annealing and Maxquardt-Levenberg algorithms. Automatic confidence interval search with projection method was applied to estimate the error of the determined thermodynamic parameters. Confidence interval was set to 2σ (95%). ITC figure was generated using GUSSI.
# WDR5 [4] = molecular target: T7, WDR5; conditions: ITC; reported values of other inhibitors; read-out: Dissociation Constant Kd towards WDR5; cited from earlier work
compound,measurement,setting,value
"CC(=O)N[C@@H](C)C(=O)N[C@@H](CCCNC(=N)N)C(=O)N[C@H](C(=O)N[C@@H](CCC(=O)O)C(=O)N[C@H](C(=O)N[C@@H](Cc1ccc(O)cc1)C(N)=O)C(C)C)[C@@H](C)O [Win6mer, Ac-ARTEVY-NH2]",effect on intrinsic monomethyltransferase activity of SET1 family members,[1],did not affect
same,methyltransferase activity of core complex on treatment,MLL2 core complex,uninhibited
same,IC50,"MLL2 core complex; 1 μM core complex, Win6mer up to 50 μM, read-out: Inhibition Efficiency, IC50",> 50000 nM
same,methyltransferase activity of core complex on treatment,MLL4 core complex; H3K4me0 substrate,uninhibited
same,IC50,MLL4 core complex; H3K4me0 substrate,> 50000 nM
same,IC50,MLL4 core complex; H3K4me1 substrate,> 50000 nM
same,methyltransferase activity of core complex on treatment,SETd1B core complex; H3K4me0 substrate,uninhibited
same,IC50,"SETd1B core complex; H3K4me0 substrate, 1 μM core complex",> 50000 nM
same,IC50,"SETd1B core complex; H3K4me1 substrate, 2 μM core complex",> 50000 nM
same,IC50,"SETd1B core complex; H3K4me2 substrate, 2 μM core complex",> 50000 nM
same,IC50,"MLL1 core complex; 1.8 μM of enzyme complex assayed, read-out: IC50",2200 nM
same,IC50,"MLL1 core complex; 2 μM of enzyme complex assayed, read-out: average IC50",2200 nM
same,IC50,"MLL1 core complex; H3K4me1 substrate, 2 μM core complex, read-out: Inhibition Efficiency, IC50 [95% confidence interval]",2200 nM
same,methyltransferase activity of core complex on treatment,MLL3 core complex,uninhibited
same,IC50,"MLL3 core complex; 2 μM core complex, Win6mer up to 50 μM, read-out: Inhibition Efficiency, IC50",> 50000 nM
same,"RbBP5/ASH2L binding of MLL2, MLL3, MLL4 and SETd1B",[2],only a modest reduction
same,RbBP5/ASH2L interaction with MLL1 and SETd1A complexes,[2],near total loss
same,ability of all six SET1 family members to interact with endogenous WDR5,[2],greatly reduced
same,increase in binding affinity over the best naturally occurring Win motif sequence,WDR5 [3],~18 fold
same,Kd,WDR5 [3]; read-out: Dissociation Constant Kd towards WDR5,~3 nM and 2.9 nM
COC(=O)c1ccc(N2CCN(C)CC2)c(NC(=O)c2cccc(OC)c2)c1 [WDR5-0103],Kd,WDR5 [4],450 nM
